Results published in patent US20080287398A1, “COLD MENTHOL RECEPTOR-1 ANTAGONISTS” (priority 2007, published 2008).
Several values for one entry are separate records, joined by “and”; a condition that tells them apart may be missing. Equal entries are not always repeated. Where two headings read alike, the source gives them in different places.

Biological target: T1, canine TRPM8 (Canis lupus familiaris, UniProt Q1A7N1)
T1 construct: expressed in transfected cells
Test: In vitro canine TRPM8 functional assay (Ca2+-sensitive dye, FLIPR/FDSS, icilin activation)
Format: cell-based
Settings: HEK293 cells expressing canine TRPM8, icilin activation; for % I (0.5 μM): 0.5 μM compound; for IC50: eight-point dose-response; for % I (1 μM): 1 μM compound
Method in brief: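 HEK293 cells stably expressing canine TRPM8, loaded with Calcium 3 dye, preincubated with compound for 5 min before icilin at a concentration giving ~80% maximal response. Ca2+ fluorescence by FLIPR or FDSS; basal-subtracted, normalized to % maximal response, quadruplicate wells, sigmoidal fit for EC50/IC50.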

[1] = HEK293, read-out: % I (0.5 μM), 0.5 μM compound
[2] = HEK293, 0.5 μM compound, read-out: % I (0.5 μM)

T1 sequence (Q1A7N1 1-1104): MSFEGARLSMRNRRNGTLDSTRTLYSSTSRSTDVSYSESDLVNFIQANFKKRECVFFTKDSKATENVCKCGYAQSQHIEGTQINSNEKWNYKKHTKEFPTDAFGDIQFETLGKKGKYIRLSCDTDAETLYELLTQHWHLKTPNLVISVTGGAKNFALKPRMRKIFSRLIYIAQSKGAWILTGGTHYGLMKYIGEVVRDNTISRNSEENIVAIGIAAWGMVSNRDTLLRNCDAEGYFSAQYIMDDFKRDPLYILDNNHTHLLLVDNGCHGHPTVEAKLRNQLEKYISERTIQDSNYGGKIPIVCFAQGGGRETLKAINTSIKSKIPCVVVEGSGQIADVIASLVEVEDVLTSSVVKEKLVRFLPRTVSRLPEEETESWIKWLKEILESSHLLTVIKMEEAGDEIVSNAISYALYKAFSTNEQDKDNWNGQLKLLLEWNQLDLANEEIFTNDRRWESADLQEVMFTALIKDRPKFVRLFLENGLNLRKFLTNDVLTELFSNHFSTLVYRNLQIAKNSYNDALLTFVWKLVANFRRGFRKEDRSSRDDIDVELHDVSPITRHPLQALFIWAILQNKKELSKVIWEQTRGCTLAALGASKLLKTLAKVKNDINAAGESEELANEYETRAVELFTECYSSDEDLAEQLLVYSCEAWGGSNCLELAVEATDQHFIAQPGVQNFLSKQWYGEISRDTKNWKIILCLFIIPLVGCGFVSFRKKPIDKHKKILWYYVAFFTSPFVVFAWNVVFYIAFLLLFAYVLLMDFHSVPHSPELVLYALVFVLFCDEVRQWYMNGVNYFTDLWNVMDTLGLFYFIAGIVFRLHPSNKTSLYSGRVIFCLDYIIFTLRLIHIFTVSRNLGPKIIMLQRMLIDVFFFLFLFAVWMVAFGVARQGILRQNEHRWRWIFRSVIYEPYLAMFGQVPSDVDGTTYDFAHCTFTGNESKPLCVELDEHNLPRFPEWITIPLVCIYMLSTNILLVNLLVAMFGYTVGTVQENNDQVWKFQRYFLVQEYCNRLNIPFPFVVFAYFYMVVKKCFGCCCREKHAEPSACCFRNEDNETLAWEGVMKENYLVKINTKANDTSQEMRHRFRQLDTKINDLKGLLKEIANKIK

SMILES	% I (0.5 μM)	IC50 (read-out: IC50)	further results
CC(C)OP(=O)(OC(C)C)C(Cc1ccc(F)cc1C(F)(F)F)c1sc2ccccc2c1Cl (centres unmarked) [Cpd 254]	103%	0.079 µM	
CC(C)OP(=O)(OC(C)C)C(Cc1cccc(SC(F)(F)F)c1)c1sc2ccccc2c1Cl (centres unmarked) [Cpd 255]	103%	0.058 µM	
CSc1ccc(CC(c2sc3ccccc3c2Cl)P(=O)(OC(C)C)OC(C)C)cc1 (centres unmarked) [Cpd 256]	103%	0.056 µM	
CCOP(=O)(OCC)C(Cc1ccc(Cl)cc1)c1sc2ccccc2c1Br (centres unmarked) [Cpd 257]	101%	0.026 µM	
CCOP(=O)(OCC)C(Cc1ccc(Cl)c(F)c1)c1sc2ccccc2c1Br (centres unmarked) [Cpd 258]	102%	0.045 µM	
CCOP(=O)(OCC)C(Cc1cc(F)cc(Cl)c1)c1sc2ccccc2c1Br (centres unmarked) [Cpd 259]	103%	0.023 µM	
CCOP(=O)(OCC)C(Cc1ccccc1C(F)(F)F)c1sc2ccccc2c1Br (centres unmarked) [Cpd 260]	103%	0.077 µM and 0.056 µM	
CCOP(=O)(OCC)C(Cc1cc(C(F)(F)F)cc(C(F)(F)F)c1)c1sc2ccccc2c1Br (centres unmarked) [Cpd 261]	102%	0.073 µM and 0.077 µM	
CCOP(=O)(OCC)C(Cc1ccc(S(=O)(=O)C(F)(F)F)cc1)c1sc2ccccc2c1Br (centres unmarked) [Cpd 262]	103%	0.066 µM	
CC(C)OP(=O)(OC(C)C)C(Cc1ccc(S(=O)(=O)C(F)(F)F)cc1)c1sc2ccccc2c1Br (centres unmarked) [Cpd 263]	103%	0.022 µM	
CC(C)OP(=O)(OC(C)C)C(Cc1ccc(S(=O)(=O)C(F)(F)F)cc1)c1sc2ccccc2c1Cl (centres unmarked) [Cpd 264]	103%	0.029 µM	
CCOP(=O)(OCC)C(Cc1ccc(F)c(F)c1)c1cc2ccccc2o1 (centres unmarked) [Cpd 265]		0.409 µM	% I (1 μM): 95%
CCOP(=O)(OCC)C(Cc1ccc(F)c(F)c1)c1oc2ccccc2c1Br (centres unmarked) [Cpd 266]		0.051 µM	% I (1 μM): 103%
CC(C)OP(=O)(OC(C)C)C(Cc1cccc(Cl)c1F)c1sc2ccccc2c1Br (centres unmarked) [Cpd 267]		0.047 µM and 0.029 µM	% I (1 μM): 101% and 102%
CC(C)OP(=O)(OC(C)C)C(Cc1cccc(C(F)(F)F)c1Cl)c1sc2ccccc2c1Br (centres unmarked) [Cpd 268]	104%	0.034 µM	
CCOP(=O)(OCC)C(Cc1ccccc1Cl)c1sc2ccccc2c1Cl (centres unmarked) [Cpd 269]	102%	0.162 µM	
CCOP(=O)(OCC)C(Cc1cccc(OC(F)(F)F)c1)c1sc2ccccc2c1Cl (centres unmarked) [Cpd 270]	102%	0.202 µM	
CCOP(=O)(OCC)C(Cc1ccc(OC(F)(F)F)c(Cl)c1)c1sc2ccccc2c1Cl (centres unmarked) [Cpd 271]	103%	0.104 µM	
CCOP(=O)(OCC)C(Cc1cccc(Cl)c1F)c1sc2ccccc2c1Cl (centres unmarked) [Cpd 272]	103%	0.114 µM	
CCOP(=O)(OCC)C(Cc1ccc(C(F)(F)F)c(F)c1)c1sc2ccccc2c1Cl (centres unmarked) [Cpd 273]	103%	0.116 µM	
CCOP(=O)(OCC)C(Cc1cc(C(F)(F)F)ccc1Cl)c1sc2ccccc2c1Cl (centres unmarked) [Cpd 274]	95%	0.301 µM	
CCOP(=O)(OCC)C(Cc1cccc(Br)c1)c1sc2ccccc2c1Cl (centres unmarked) [Cpd 275]	103%	0.104 µM	
CCOP(=O)(OCC)C(Cc1cc(F)cc(Cl)c1)c1sc2ccccc2c1Cl (centres unmarked) [Cpd 276]	103%	0.114 µM	
CCOP(=O)(OCC)C(Cc1ccc(OC(F)(F)F)cc1)c1sc2ccccc2c1Cl (centres unmarked) [Cpd 277]	103%	0.116 µM	
CCOP(=O)(OCC)C(Cc1cc(F)cc(C(F)(F)F)c1)c1sc2ccccc2c1Cl (centres unmarked) [Cpd 278]	103%	0.159 µM	

SMILES	% I (0.5 μM)	IC50 (read-out: IC50)	further results
CCOP(=O)(OCC)C(Cc1cccc(C#N)c1)c1sc2ccccc2c1Br (centres unmarked) [Cpd 309]	103%	0.088 µM	
CCOP(=O)(OCC)C(Cc1cccc(-n2cccc2)c1)c1sc2ccccc2c1Br (centres unmarked) [Cpd 310]	102%	0.042 µM	
CCOP(=O)(OCC)C(Cc1ccc(OC(F)F)cc1)c1sc2ccccc2c1Br (centres unmarked) [Cpd 311]	102%	0.053 µM	
CCOP(=O)(OCC)C(Cc1ccc(C#N)cc1)c1sc2ccccc2c1Br (centres unmarked) [Cpd 312]	102%	0.089 µM	
CCOP(=O)(OCC)C(Cc1cccc(C(=O)OC)c1)c1sc2ccccc2c1Br (centres unmarked) [Cpd 313]	102%	0.083 µM	
CCOP(=O)(OCC)C(Cc1cccc(OC)c1)c1sc2ccccc2c1Br (centres unmarked) [Cpd 314]	103% and 104%	0.029 µM and 0.021 µM	
CCOP(=O)(OCC)C(Cc1cccc([N+](=O)[O-])c1)c1sc2ccccc2c1Br (centres unmarked) [Cpd 315]			inhibition at 0.5 µM [1]: 103%; IC50 (IC50 (μM)): 0.041 µM
CCOP(=O)(OCC)C(Cc1cccc(O)c1)c1sc2ccccc2c1Br (centres unmarked) [Cpd 316]	103% and 104%	0.032 µM and 0.02 µM	
COc1cccc(CC(c2sc3ccccc3c2Br)P(=O)(OC(C)C)OC(C)C)c1 (centres unmarked) [Cpd 317]	102%	0.021 µM	
CCOP(=O)(OCC)C(Cc1cccc(N)c1)c1sc2ccccc2c1Br (centres unmarked) [Cpd 318, [2-(3-Amino-phenyl)-1-(3-bromo-benzo[b]thiophen-2-yl)-ethyl]-phosphonic acid diethyl ester]			inhibition at 0.5 µM [1]: 100%; IC50 (IC50 (μM)): 0.211 µM
CCOP(=O)(OCC)C(Cc1cc(OC)cc(OC)c1)c1sc2ccccc2c1Br (centres unmarked) [Cpd 319]	103%	0.026 µM	
CCOP(=O)(OCC)C(Cc1ccccc1OC)c1sc2ccccc2c1Br (centres unmarked) [Cpd 320]	103%	0.028 µM	
CCOP(=O)(OCC)C(Cc1ccc(OC)cc1)c1sc2ccccc2c1Br (centres unmarked) [Cpd 321]	102%	0.043 µM	
CCOP(=O)(OCC)C(Cc1cc(O)cc(O)c1)c1sc2ccccc2c1Br (centres unmarked) [Cpd 322]	45%		
CCOP(=O)(OCC)C(Cc1ccccc1O)c1sc2ccccc2c1Br (centres unmarked) [Cpd 323]	104%	0.009 µM	
CCOP(=O)(OCC)C(Cc1ccc(O)cc1)c1sc2ccccc2c1Br (centres unmarked) [Cpd 324]	54%		
CC(C)OP(=O)(OC(C)C)C(Cc1cccc(O)c1)c1sc2ccccc2c1Br (centres unmarked) [Cpd 325]	97%	0.01 µM	
COc1ccc(CC(c2sc3ccccc3c2Br)P(=O)(OC(C)C)OC(C)C)cc1C(F)(F)F (centres unmarked) [Cpd 326]	103% and 102%	0.086 µM and 0.051 µM	
CC(C)OP(=O)(OC(C)C)C(Cc1ccc(F)c(C(F)(F)F)c1)c1c(Br)c2ccccc2n1C(=O)OC(C)(C)C (centres unmarked) [Cpd 327, 3-Bromo-2-[1-(diisopropoxy-phosporyl)-2-(4-fluoro-3-trifluoromethyl-phenyl)-ethyl]-indole-1-carboxylic acid tert-butyl ester]	44%		
CC(C)OP(=O)(OC(C)C)C(Cc1ccc(F)c(C(F)(F)F)c1)c1c(Br)c2ccccc2n1C (centres unmarked) [Cpd 328, [1-(3-Bromo-1-methyl-1H-indol-2-yl)-2-(4-fluoro-3-trifluoromethyl-phenyl)-ethyl]-phosphonic acid diisopropyl ester]		0.193 µM	inhibition at 0.5 µM [2]: 102%
CC(C)OP(=O)(OC(C)C)C(Cc1ccc(F)c(C(F)(F)F)c1)c1c(Br)c2ccccc2n1S(C)(=O)=O (centres unmarked) [Cpd 330, [1-(3-Bromo-1-methanesulfonly-1H-indol-2-yl)-2-(4-fluoro-3-trifluoromethyl-phenyl)-ethyl]-phosphonic acid diisopropyl ester]		0.137 µM	
CC(=O)n1c(C(Cc2ccc(F)c(C(F)(F)F)c2)P(=O)(OC(C)C)OC(C)C)c(Br)c2ccccc21 (centres unmarked) [Cpd 331]	101%	0.152 µM	
CCCS(=O)(=O)n1c(C(Cc2ccc(F)c(C(F)(F)F)c2)P(=O)(OC(C)C)OC(C)C)c(Br)c2ccccc21 (centres unmarked) [Cpd 332]	72%		
CC(C)OP(=O)(OC(C)C)/C(=C/c1ccc(F)c(F)c1)c1cc2ccccc2s1 [Cpd 333, (E)-[1-Benzo[b]thiophen-2-yl-2-(3,4-difluoro-phenyl)-vinyl]-phosphonic acid diisopropyl ester]		0.176 µM	inhibition at 0.5 µM [2]: 95%
CC(C)OP(=O)(OC(C)C)/C(=C/c1ccc(F)c(F)c1)c1sc2ccccc2c1Br [Cpd 334, (E)-[1-(3-Bromo-benzo[b]thiophen-2-yl)-2-(3,4-difluoro-phenyl)-vinyl]-phosphonic acid diisopropyl ester]		0.11 µM	inhibition at 0.5 µM [2]: 97%
